Results published in patent publication US20220362253A1, “NOVEL PHARMACEUTICAL FORMULATION” (GLAXOSMITHKLINE INTELLECTUAL PROPERTY DEVELOPMENT LIMITED, priority 2018, published 2022).
Converted amounts (≈) assume the structure as drawn. “And” between values parts separate entries of the source, which are not always exact repeats. Equal values may be shown once.

Legend:
[1] = Solubility screening up to 5 mg/mL at RT in aqueous acid media (Examples 1 to 6); type: physicochemical; settings: free base; for solubility at 24 h: thermodynamic from solid, read-out: Drug Solubility
Protocol: Solubility of Compound A was conducted by adding a known quantity of drug to specific volume of aqueous media followed by 24 hour agitation at room temperature (RT).

[2] = Solubility screening up to 2 mg/mL at RT in aqueous acid media (Examples 7 to 13); type: physicochemical; settings: target up to 2 mg/mL; for solubility at 24 h: thermodynamic from solid, read-out: Drug Solubility
[3] = Solubility in 20 mM acetic, citric and L-aspartic aqueous media as a function of pH (Example 14); type: physicochemical
[4] = Aqueous solubility with glutamic acid and glucuronic acid (Example 15); type: physicochemical; settings: aqueous buffer, thermodynamic from solid, adjusted pH 4.1, filtered supernatant
Description: Aqueous solubility of Compound A with glutamic acid and glucuronic acid were explored in Example 15.

[5] = pHmax / Ksp determination with L-aspartic acid (Example 16); type: physicochemical; settings: for solubility: L-aspartic acid solution, thermodynamic from solid, >110 hr stirring at RT, read-out: Drug Solubility; for solubility / pH max: L-aspartic acid; for pH max: pHmax = pKa + log (S0/√Ksp)
Protocol: Compound A solubility was separately determined by controlling the mole ratio of L-aspartic acid relative to drug in Example 16. The concentrations of drug and counterion were measured in supernatant to calculate Ksp (Solubility product) (Table 5).

[6] = system: cynomolgus monkeys; assay: Injection site reactions after repeat IV bolus dosing (Example 17); type: in vivo, cynomolgus monkey; settings: weekly IV bolus into antecubital vein then saline flush, 30 mM L-aspartic acid, 3.7% mannitol, pH approximately 3.0, non-stoichiometric hydrate form
Protocol: In vivo studies were conducted in cynomolgus monkeys administered IV doses of Compound A in a vehicle of 30 mM L-aspartic acid, 3.7% mannitol in Sterile Water for Injection, pH approximately 3.0. For these studies, Compound A was used in a non-stoichiometric hydrate form according to Table 6.

[7] = Stated physical properties: water solubility, hygroscopicity; type: physicochemical
[8] = Stated bioavailability; settings: oral

Drug Solubility ([1]; 9.5 mM Lactic acid, solution pH 3.83, stirred 24 h at RT): 3590 µg/mL | solubility at 24 h ([1]; 9.5 mM lactic acid aqueous medium, pH 3.83, aqueous buffer, 9.5 mM Lactic acid, solution pH 3.83, stirred 24 h at RT): > 3500 µg/mL | Drug Solubility ([1]; 50 mM Citric acid, solution pH 2.30, stirred 24 h at RT): 1320 µg/mL | solubility at 24 h ([1]; 50 mM citric acid aqueous medium, pH 2.3, aqueous buffer, 50 mM Citric acid, solution pH 2.30, stirred 24 h at RT): < 2000 µg/mL | Drug Solubility ([1]; 72.8 mM Methane sulfonic acid, solution pH 1.27, stirred 24 h at RT): 3850 µg/mL | solubility at 24 h ([1]; 72.8 mM methane sulfonic acid aqueous medium, pH 1.27, aqueous buffer, 72.8 mM Methane sulfonic acid, solution pH 1.27, stirred 24 h at RT): > 3500 µg/mL | Drug Solubility ([1]; 170 mM Acetic acid, solution pH 3.16, stirred 24 h at RT): 4050 µg/mL | solubility at 24 h ([1]; 170 mM acetic acid aqueous medium, pH 3.16, aqueous buffer, 170 mM Acetic acid, solution pH 3.16, stirred 24 h at RT): > 3500 µg/mL | Drug Solubility ([2]; 10 mM Acetic acid, solution pH 3.33, stirred 24 h): 1450 µg/mL | Drug Solubility ([2]; 10 mM Methane sulfonic acid, solution pH 1.99, stirred 24 h): 1780 µg/mL | solubility at 24 h ([2]; 10 mM acetic acid aqueous medium, pH 3.33, aqueous buffer, 10 mM Acetic acid, solution pH 3.33, stirred 24 h): > 1000 µg/mL | solubility at 24 h ([2]; 10 mM methane sulfonic acid aqueous medium, pH 1.99, aqueous buffer, 10 mM Methane sulfonic acid, solution pH 1.99, stirred 24 h): > 1000 µg/mL | Drug Solubility ([2]; 25 mM Aspartic acid, solution pH 2.95, stirred 24 h): 1800 µg/mL | Drug Solubility ([2]; 25 mM Citric acid, solution pH 2.32, stirred 24 h): 1810 µg/mL | Drug Solubility ([2]; 25 mM Lactic acid, solution pH 2.57, stirred 24 h): 1830 µg/mL | Drug Solubility ([2]; 25 mM Tartaric acid, solution pH 2.33, stirred 24 h): 800 µg/mL | solubility at 24 h ([2]; 25 mM aspartic acid aqueous medium, pH 2.95, aqueous buffer, 25 mM Aspartic acid, solution pH 2.95, stirred 24 h): > 1000 µg/mL | solubility at 24 h ([2]; 25 mM citric acid aqueous medium, pH 2.32, aqueous buffer, 25 mM Citric acid, solution pH 2.32, stirred 24 h): > 1000 µg/mL | solubility at 24 h ([2]; 25 mM lactic acid aqueous medium, pH 2.57, aqueous buffer, 25 mM Lactic acid, solution pH 2.57, stirred 24 h): > 1000 µg/mL | solubility at 24 h ([2]; 25 mM tartaric acid aqueous medium, pH 2.33, aqueous buffer, 25 mM Tartaric acid, solution pH 2.33, stirred 24 h): < 1000 µg/mL | solubility ([3]; 20 mM L-aspartic acid aqueous media, 22 °C, aqueous buffer, thermodynamic from solid, 20 mM L-aspartic acid media, pH 6.14, 22 ± 1° C., Compound A in excess, read-out: Solubility): 0.7 µg/mL (≈ 0.824 µM) | solubility ([3]; 20 mM L-aspartic acid aqueous media, 22 °C, aqueous buffer, thermodynamic from solid, 20 mM L-aspartic acid media, pH 7.97, 22 ± 1° C., Compound A in excess, read-out: Solubility): 0.5 µg/mL (≈ 0.588 µM) | solubility ([3]; 20 mM L-aspartic acid aqueous media, 22 °C, aqueous buffer, thermodynamic from solid, 20 mM L-aspartic acid media, pH 8.87, 22 ± 1° C., Compound A in excess, read-out: Solubility): 0.9 µg/mL (≈ 1.06 µM) | solubility ([3]; 20 mM L-aspartic acid aqueous medium, aqueous buffer, Aspartic acid, at pH<3, read-out: Highest solubility): 4000 µg/mL (≈ 4710 µM) | solubility ([3]; 20 mM acetic acid aqueous media, 22 °C, aqueous buffer, thermodynamic from solid, 20 mM acetic acid media, pH 6.42, 22 ± 1° C., Compound A in excess, read-out: Solubility): 0.5 µg/mL (≈ 0.588 µM) | solubility ([3]; 20 mM acetic acid aqueous media, 22 °C, aqueous buffer, thermodynamic from solid, 20 mM acetic acid media, pH 9.84, 22 ± 1° C., Compound A in excess, read-out: Solubility): 0.5 µg/mL (≈ 0.588 µM) | solubility ([3]; 20 mM acetic, citric or L-aspartic acid aqueous media, aqueous buffer, at pH 4.0, any of the counter ions (L-aspartic, acetic, citric acid), read-out: Solubility): ≤ 500 µg/mL | solubility ([3]; 20 mM citric acid aqueous media, 22 °C, aqueous buffer, thermodynamic from solid, 20 mM citric acid media, pH 6.92, 22 ± 1° C., Compound A in excess, read-out: Solubility): 0.5 µg/mL (≈ 0.588 µM) | solubility ([3]; 20 mM citric acid aqueous media, 22 °C, aqueous buffer, thermodynamic from solid, 20 mM citric acid media, pH 8.82, 22 ± 1° C., Compound A in excess, read-out: Solubility): 0.5 µg/mL (≈ 0.588 µM) | solubility ([3]; 22 °C, aqueous buffer, thermodynamic from solid, 20 mM L-aspartic acid media, pH 3.05, 22 ± 1° C., Compound A in excess, read-out: Solubility): 5270 µg/mL (≈ 6200 µM) | solubility ([3]; 22 °C, aqueous buffer, thermodynamic from solid, 20 mM L-aspartic acid media, pH 3.23, 22 ± 1° C., Compound A in excess, read-out: Solubility): 3970 µg/mL (≈ 4670 µM) | solubility ([3]; 22 °C, aqueous buffer, thermodynamic from solid, 20 mM L-aspartic acid media, pH 3.76, 22 ± 1° C., Compound A in excess, read-out: Solubility): 472 µg/mL (≈ 555 µM) | solubility ([3]; 22 °C, aqueous buffer, thermodynamic from solid, 20 mM L-aspartic acid media, pH 3.96, 22 ± 1° C., Compound A in excess, read-out: Solubility): 227 µg/mL (≈ 267 µM) | solubility ([3]; 22 °C, aqueous buffer, thermodynamic from solid, 20 mM L-aspartic acid media, pH 4.18, 22 ± 1° C., Compound A in excess, read-out: Solubility): 68.7 µg/mL (≈ 80.8 µM) | solubility ([3]; 22 °C, aqueous buffer, thermodynamic from solid, 20 mM L-aspartic acid media, pH 4.54, 22 ± 1° C., Compound A in excess, read-out: Solubility): 16.7 µg/mL (≈ 19.6 µM) | solubility ([3]; 22 °C, aqueous buffer, thermodynamic from solid, 20 mM L-aspartic acid media, pH 4.93, 22 ± 1° C., Compound A in excess, read-out: Solubility): 5 µg/mL (≈ 5.88 µM) | solubility ([3]; 22 °C, aqueous buffer, thermodynamic from solid, 20 mM acetic acid media, pH 3.26, 22 ± 1° C., Compound A in excess, read-out: Solubility): 1760 µg/mL (≈ 2070 µM) | solubility ([3]; 22 °C, aqueous buffer, thermodynamic from solid, 20 mM acetic acid media, pH 3.58, 22 ± 1° C., Compound A in excess, read-out: Solubility): 1090 µg/mL (≈ 1280 µM) | solubility ([3]; 22 °C, aqueous buffer, thermodynamic from solid, 20 mM acetic acid media, pH 3.71, 22 ± 1° C., Compound A in excess, read-out: Solubility): 810 µg/mL (≈ 953 µM) | solubility ([3]; 22 °C, aqueous buffer, thermodynamic from solid, 20 mM acetic acid media, pH 3.91, 22 ± 1° C., Compound A in excess, read-out: Solubility): 396 µg/mL (≈ 466 µM) | solubility ([3]; 22 °C, aqueous buffer, thermodynamic from solid, 20 mM acetic acid media, pH 4.09, 22 ± 1° C., Compound A in excess, read-out: Solubility): 269 µg/mL (≈ 316 µM) | solubility ([3]; 22 °C, aqueous buffer, thermodynamic from solid, 20 mM acetic acid media, pH 4.64, 22 ± 1° C., Compound A in excess, read-out: Solubility): 24.1 µg/mL (≈ 28.4 µM) | solubility ([3]; 22 °C, aqueous buffer, thermodynamic from solid, 20 mM acetic acid media, pH 4.85, 22 ± 1° C., Compound A in excess, read-out: Solubility): 10.8 µg/mL (≈ 12.7 µM) | solubility ([3]; 22 °C, aqueous buffer, thermodynamic from solid, 20 mM acetic acid media, pH 5.48, 22 ± 1° C., Compound A in excess, read-out: Solubility): 2.9 µg/mL (≈ 3.41 µM) | solubility ([3]; 22 °C, aqueous buffer, thermodynamic from solid, 20 mM citric acid media, pH 2.47, 22 ± 1° C., Compound A in excess, read-out: Solubility): 456 µg/mL (≈ 536 µM) | solubility ([3]; 22 °C, aqueous buffer, thermodynamic from solid, 20 mM citric acid media, pH 2.61, 22 ± 1° C., Compound A in excess, read-out: Solubility): 195 µg/mL (≈ 229 µM) | solubility ([3]; 22 °C, aqueous buffer, thermodynamic from solid, 20 mM citric acid media, pH 2.74, 22 ± 1° C., Compound A in excess, read-out: Solubility): 81.6 µg/mL (≈ 96 µM) | solubility ([3]; 22 °C, aqueous buffer, thermodynamic from solid, 20 mM citric acid media, pH 3.98, 22 ± 1° C., Compound A in excess, read-out: Solubility): 5.4 µg/mL (≈ 6.35 µM) | solubility ([3]; 22 °C, aqueous buffer, thermodynamic from solid, 20 mM citric acid media, pH 4.94, 22 ± 1° C., Compound A in excess, read-out: Solubility): 4 µg/mL (≈ 4.71 µM) | solubility ([3]; 22 °C, aqueous buffer, thermodynamic from solid, 20 mM citric acid media, pH 5.91, 22 ± 1° C., Compound A in excess, read-out: Solubility): 1.3 µg/mL (≈ 1.53 µM) | solubility ([3]; 22 °C, pH 2.9, aqueous buffer, thermodynamic from solid, 20 mM citric acid media, pH 2.90, 22 ± 1° C., Compound A in excess, read-out: Solubility): 41.5 µg/mL (≈ 48.8 µM) | solubility ([3]; 22 °C, pH 3.4, aqueous buffer, thermodynamic from solid, 20 mM citric acid media, pH 3.40, 22 ± 1° C., Compound A in excess, read-out: Solubility): 8.3 µg/mL (≈ 9.77 µM) | solubility ([4]; aqueous glucuronic acid (1 mol eq), Glucuronic acid (1 mol eq)): 9000 µg/mL (≈ 10600 µM) | solubility ([4]; aqueous glutamic acid (1 mol eq), Glutamic acid (1 mol eq)): 4500 µg/mL (≈ 5290 µM) | solubility ([5]; counterion conc. 8.45 mM): 4070 µg/mL and 4790 µM | solubility ([5]; counterion conc. 8.70 mM): 3950 µg/mL and 4640 µM | solubility ([5]; counterion conc. 9.18 mM): 3940 µg/mL and 4640 µM | solubility ([5]; counterion conc. 9.33 mM): 4140 µg/mL and 4880 µM | pH max ([5]; counterion conc. 8.45 mM): 3.57 | pH max ([5]; counterion conc. 8.70 mM): 3.57 | pH max ([5]; counterion conc. 9.18 mM): 3.56 | pH max ([5]; counterion conc. 9.33 mM): 3.54 | pHmax ([5]; in L-aspartic acid media, from the Ksp measurements in Table 5): 3.5-3.6 | pKa ([5]; value used for the pHmax calculation, read-out: pKa of drug): 7 | solubility [7]: < 10 µg/mL | bioavailability [8]: poor oral bioavailability
Structure (SMILES): CCn1nc(C)cc1C(=O)Nc1nc2cc(C(N)=O)cc(OC)c2n1C/C=C/Cn1c(NC(=O)c2cc(C)nn2CC)nc2cc(C(N)=O)cc(OCCCN3CCOCC3)c21 [Compound A, (E)-1-(4-(5-Carbamoyl-2-(1-ethyl-3-methyl-1H-pyrazole-5-carboxamido)-7-(3-morpholinopropoxy)-1H-benzo[d]imidazol-1-yl)but-2-en-1-yl)-2-(1-ethyl-3-methyl-1H-pyrazole-5-carboxamido)-7-methoxy-1H-benzo[d]imidazole-5-carboxamide]
Injection site reactions [6]: no Compound A-related injection site reactions were observed
